# Reference: patent US4386211A, “Anti-ulcer urea compounds” (G. D. Searle & Co., priority 1981, dated 1983)
# How the values were obtained:
# H-2 receptors = H-2 receptors (Rattus norvegicus, UniProt P25102); assay: Rat uterus assay: reversal of histamine inhibition of electrically induced contractions; details: isolated rat uterine smooth muscle; dose ratios of 2 or more indicate activity
# Procedure: Histamine reduces contractions induced by electrical stimulation of the isolated rat uterine smooth muscle, and histamine H-2 antagonists reverse this inhibition. The dose ratio for a specific concentration of test compound is determined by an assay procedure that compares the inhibitory effect of two concentrations of histamine in the presence of the test compound to the inhibitory effect of two concentrations of histamine in the absence of the test compound. The dose ratio is defined as the ratio of the concentration of histamine in the presence of the test compound to the concentration of histamine in the absence of the test compound where both concentrations produce the same inhibition of the electrical response. Dose ratios of 2 or more indicate activity. Compounds that are active at 40 ug/ml will be tested against isoproterenol at the same concentration in a similar test. Compound concentrations that are active against histamine but not against isoproterenol will be classified as specific H-2 antagonists.
# The same type of receptors H-2 are involved in inhibition of contractions of the rat uterus and stimulation of gastric acid secretion. The rat uterus is therefore used as a model upon which to test for histamine H-2 antagonists that may be effective in treating peptic ulcers.
# gastric acid secretion = details: in vivo; cited from earlier work
# ulcer formation = details: in vivo; cited from earlier work
# [1] = humans; cited from earlier work
# H2 receptor = assay: Lipolysis assay: histamine-stimulated lipolysis in isolated fat cells; assay type: cell-based; details: isolated dog fat cells, histamine 2×10^-6 M; active = 50 percent or more inhibition
# Procedure: Isolated fat cells of dogs are prepared from adipose tissue. Cells are incubated in the presence or absence of histamine at 2×10^-6 M. Additional flasks contain the compound to be tested, plus histamine. At the end of the incubation the cell cultures are analyzed for glycerol content, and results are converted into a lipolysis rate. The stimulation of lipolysis attributed to histamine (D) is the difference between the rate observed in its presence and absence:
# These figures are then converted to a percent inhibition by the formula:
# Percent inhibition=(D-E)/D×100
# Chain of H-2 receptors (P25102 whole entry): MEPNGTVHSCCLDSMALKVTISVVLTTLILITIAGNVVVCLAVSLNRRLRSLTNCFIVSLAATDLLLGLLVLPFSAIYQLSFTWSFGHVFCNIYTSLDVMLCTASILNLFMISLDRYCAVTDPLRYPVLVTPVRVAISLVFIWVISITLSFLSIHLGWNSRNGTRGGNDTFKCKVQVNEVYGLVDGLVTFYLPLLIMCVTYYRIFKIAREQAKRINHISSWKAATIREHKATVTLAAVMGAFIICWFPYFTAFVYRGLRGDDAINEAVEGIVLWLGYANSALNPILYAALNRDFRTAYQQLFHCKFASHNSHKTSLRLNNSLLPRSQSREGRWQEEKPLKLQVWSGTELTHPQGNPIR
SMILES,activity in rat uterus assay (H-2 receptors),gastric acid secretion (gastric acid secretion),ulcer formation (ulcer formation),severe toxic symptoms [1],untoward effects observed [1],classification in lipolysis assay (active against histamine but not norepinephrine = specific) (H2 receptor)
CNC(=S)NCCCCc1cnc[nH]1 [burimamide],active,inhibit,inhibit,–,–,–
CN/C(=N/CCSCc1nc[nH]c1C)NC#N [cimetidine],active,inhibit,inhibit,no severe toxic symptoms,"gynecomastia, elevated SGOT, SGPT and creatine, and increases in serum gastrin",specific inhibitors
C/N=C(\S)NCCSCc1[nH]cnc1C [metiamide],active,inhibit,inhibit,–,–,specific inhibitors
